Among the data in a melting point compilation (Tetko et al.; mined from patent text by program, amines drawn as free bases though some values may be those of a salt) are melting point values, retold here.

With `O=C(c1ccc(Cl)cc1)c1ccc2c(c1)C(c1cccc(Cl)c1)SCc1nnnn1-2` (centres undefined), the melting point was determined as 212 °C.
Consider `OC(CCCCCCCCCCOCc1ccccc1)c1ccc(OCc2ccccc2)c(OCc2ccccc2)c1` (centres undefined), for which the melting point lay within 50 to 52 °C.
The figure for `O=C(O)Cc1cccc2c(=O)cc(-c3c(F)cccc3F)oc12` is 178 to 180 °C.
Under `COC(=O)c1cc(NC(C)=O)ccc1OC(C)=O` stands 133 to 135 °C; under `O=C(O)c1cc(Cl)c(Cl)nc1Cl`, 164 to 168 °C; under `O=C(NCc1cc[nH]c(=O)c1)c1nc2ccc(F)c(OCc3ccc(F)cc3)c2c(=O)[nH]1`, 248 to 250 °C.
Under `Nc1nccc(-c2c[nH]c3nccc(-c4ccccc4)c23)n1` stands more than 210 °C.
In turn, `COC(=O)c1ccc(Br)c(CBr)c1` displayed a melting point of 100 to 101 °C.
Under `CCOC(=O)C(CBr)=NOC(=O)c1ccc(Cl)cc1` stands 82 to 84.5 °C; under `O=C1OC(=O)c2cscc21`, 147 to 149 °C; under `COCN1C(C)=C(C(=O)OCc2ccccc2)C(c2ccccc2C(F)(F)F)C(C(=O)OCc2ccccc2)=C1C`, 94 to 95 °C.
Compound `NCCn1nc2c3c(c(Cl)ccc31)C(=O)c1c(OCc3ccccc3)ccc(OCc3ccccc3)c1-2` displayed a melting point of 176 to 178 °C.
The figure for `Cc1nc2ccccc2c(=O)n1CCN1CCC(C(=O)c2ccc(F)cc2)CC1` is 165 °C; for `CC1CC2C3CCC4=CC(=O)C=CC4(C)C3C(O)CC2(C)C1C(=O)CI` (centres undefined) it is 153 °C; for `O=C(O)CN[C@H]1C[C@H](O)CO1` (relative stereo) it is 53 to 56 °C.
Under `C=C1N=C(c2ccccc2F)c2cc(Cl)ccc2C(=O)C1N(C)C` (centres undefined) stands 224 to 226 °C.
The figure for `CCCCCCCN(CCc1ccc(OC(C)(C)C(=O)O)cc1)C(=O)Nc1ccc(OC)cc1OC` is 95 to 96 °C; for `CC(=NOCC(N)=O)c1ccc(Cl)c(Cl)c1` it is 111 to 112 °C; for `C#CCCCn1ncc2c(N)c(C(=O)OCC=C)c(C)nc21` it is 99.5 °C.
In turn, `COC(=O)CC1=C(C)C(O)c2ccc(C#N)cc21` (centres undefined) yielded a melting point of 70 to 75 °C.
Turning to `O=c1[nH]c2ccccc2n1CCN1CCC(C(c2ccccc2)c2ccccc2)CC1`, the melting point fell in the range of 195 to 196 °C.
Under `CC(C)(C)C(Cl)=NNc1cc(Cl)ccc1Cl` stands 50 to 51 °C.
The compound `CCCCCCCCCCCCCCOCC(COCCCCCCCCCCCCCC)(CC(=O)O)CC(=O)O` had a melting point of 84 to 86 °C.
Under `C=CC(=O)NCc1c(-c2ccccc2)noc1C` stands 149 to 151 °C.
The compound `Nc1ccc(-c2noc(-c3cnn4c(C(F)(F)F)cc(-c5ccc(C(F)(F)F)c(OCC(F)(F)F)c5)nc34)n2)cn1` yielded a melting point of 284 °C.
As for `COc1ccc(OC)c(-c2cccc3c2OC(CN)C3)c1` (centres undefined), the melting point is 128 to 132 °C.
The figure for `CCN1CCN(NC(=O)c2cc(Cl)c(N)cc2OC)CC1` is 177 to 178 °C; for `Clc1cc(Oc2ccc3ncccc3c2)ncn1` it is 136 to 137 °C; for `O=c1c2cc([N+](=O)[O-])ccc2nc2n1CS(=O)(=O)N2` it is more than 300 °C.
The figure for `C#CCOc1cc(NNC(=S)C(C)(C)C)c(Cl)cc1Cl` is 126 to 128 °C; for `CCOC(=O)C=Cc1ccc(OC2CCCCO2)cc1` (centres undefined) it is 52 to 53 °C; for `N#CC(C#N)=C1N(CCCN2CCCCC2)CCN1CCN1CCCCC1` it is 88 to 89 °C.
Under `CCC(=Cc1cccc([N+](=O)[O-])c1)C(=O)Oc1ccc(OC)cc1` stands 65 to 66 °C.
In turn, `CC1(COc2ccc(CC3SC(=O)NC3=O)cc2)CCc2cc(C(=O)O)ccc2O1` (centres undefined) returned a melting point of 223 to 225 °C.
With `COP(=O)(Cc1ccc2ccc(CP(=O)(OC)OC)cc2c1)OC`, the melting point is 87 to 88 °C.
`CCCCCCCCCCCCc1nc(NC(=O)Nc2c(C(C)C)cccc2C(C)C)n[nH]1` yielded a melting point of 154 to 164 °C.
Under `O=C(O)Cc1cn(CCc2ccc(OCc3ccccc3)cc2)nc1-c1ccccc1` stands 199 to 200 °C; under `CC(O)CNc1ccnc2cc(Cl)ccc12` (centres undefined), 168 to 170 °C.
The figure for `CCC(C)N(C)C(=O)c1cc(-c2ccc(C)c(C)c2)c2sccc2c1` (centres undefined) is 120 °C; for `CCOC(=O)c1nccn1C1Cc2ccccc2C1=O` (centres undefined) it is 116 °C; for `COc1ccc(-c2ccc(C(N)=O)cc2)cc1-c1cccc([N+](=O)[O-])c1` it is 201 to 205 °C.
Under `Cc1ccccc1-n1c(=O)nc(N(C)C)n(C)c1=O` stands 159 to 162 °C; under `FC(F)(F)c1cccc(Oc2cccc(-c3nnc(Nc4ccc(Cl)c(Cl)c4)s3)c2)c1`, 212 to 213 °C; under `c1ccc2c(c1)C[C@H]1CSC(=Nc3cnccn3)N1C2`, 140 °C.
For `O=C(NC1CC1)c1cccc(-c2ccc3c(c2)N(c2ccc(Cl)cc2Cl)CC3)c1`, the melting point was in the range of 215 to 218 °C.
The figure for `N#Cc1ncn2c(-c3cccc(C(F)(F)F)c3)ccnc12` is 168 to 169 °C; for `Cc1cc2[nH]c(=O)c(=O)[nH]c2cc1Cl` it is more than 330 °C.
Under `CCOC(=O)Oc1ccc([N+](=O)[O-])c(C(=O)O)c1` stands 132 to 137 °C.
Compound `Nc1nc(O)c2c(n1)NCC(CCc1ccc(C(=O)N[C@@H](CCC(=O)O)C(=O)O)[nH]1)C2` (some centres undefined) displayed a melting point of more than 260 °C.
Under `CCNC(=O)Nc1nc2cc(-c3cccnc3)cc(-c3nnc(C)o3)n2n1` stands 318 to 321 °C.
For the compound `CCCCc1nc(Cl)c(CO)n1Cc1ccc(-c2nc3ccccn3c2C(=O)O)cc1`, the melting point lay in the range of 173 to 175 °C.
Under `OCC1C(O)C(O)C(O)CN1C=CCc1cccc(OCCOc2cccc(CC=CN3CC(O)C(O)C(O)C3CO)c2)c1` (centres undefined) stands 210 to 213 °C; under `Cc1nc(N)n(N)c(=O)c1CCO`, 126 to 135 °C.
Under `CCc1ccc2c(c1)C=Cc1cc(C)ccc1C2c1cn(Cc2ccc(C(=O)O)o2)c(=O)[nH]c1=O` (centres undefined) stands 253 °C.
Under `CN1CC(C(=O)COC(=O)c2ccncc2)CC2c3cccc4[nH]cc(c34)CC21` (centres undefined) stands 158 to 161 °C; under `CN1C(=O)c2cscc2N(Cc2ccccc2)c2ccccc21`, 152 to 153 °C.
In turn, `N#CCCN(CCC#N)CCC#N` showed a melting point of 59 to 61 °C.
The figure for `CCn1c(-c2ccc(OC)c(OC)c2)cc(=O)n(CC)c1=O` is 104 to 107 °C; for `COC(=O)c1cc(NC(=O)C(F)(F)F)c2cc(Cc3ccc(F)cc3)cnc2c1O` it is 191 to 192 °C.
Under `CCOC(=O)C(=CC=C(C)C=CC=C(C)C=CC1=C(C)CCCC1(C)C)CC` stands 164 to 165 °C; under `CCN1CCCC1CNC(=O)c1cc(S(=O)(=O)CC)cc2c1OCCO2` (centres undefined), 111 to 122 °C.
Regarding `Cc1cc2[nH]c(=O)ccc2c(Br)n1`, the melting point was in the range of 276 to 278 °C.
The figure for `CSc1cc(C)c(O)cc1C` is 98 to 99 °C; for `CC(C)NCC1(O)CCN(c2c(F)cc3c(=O)c(C(=O)O)cn(C4CC4)c3c2F)C1` (centres undefined) it is 213 to 214 °C; for `COC(=O)c1cc([N+](=O)[O-])ccc1CS(N)(=O)=O` it is 167 to 170 °C.
Under `CCC(=O)N(CCCc1ccccc1)C1CCc2c(cccc2NC(C)=O)C1` (centres undefined) stands 148 to 150 °C; under `C[C@@H](c1ccc(-c2ccc(C#N)cn2)cc1)N1CC[C@](CC(C)(C)O)(c2ccc(F)cc2)OC1=O`, 155 to 157 °C; under `COc1ccc(N2C(=O)[C@@H](N3C(=O)c4ccccc4C3=O)[C@H]2/C=C/c2ccccc2)cc1` (relative stereo), 202 to 203 °C.
Under `O=[N+]([O-])c1ccc2ccn(CCCCl)c2c1` stands 85 to 87 °C; under `CCOCc1nc2c(N)nc3cccnc3c2n1NC(C)C`, 150 to 152 °C; under `CCCOCCOC(=O)C(=O)Nc1nc(-c2ccccc2)cs1`, 94 to 96 °C.
With `C(=C\c1nc(COc2ccc(CCCn3ncnn3)cc2)co1)/c1ccccc1`, the melting point lay in the range of 97 to 98 °C.
With `COC(=O)CCc1cc2cc(C(C)=O)ccc2n1S(=O)(=O)c1ccccc1`, the melting point was 122 to 127 °C.
The figure for `Cc1cc(Oc2cccc([N+](=O)[O-])c2N(C)C(=O)OC(C)(C)C)cc(C)c1NC(=O)OC(C)(C)C` is 154 to 156 °C; for `CC(=O)NS(=O)(=O)c1cc(C(=O)O)cc(N)c1Oc1ccccc1` it is 290 to 293 °C; for `O=C(Nc1ccccc1)Nc1ccnc(O)c1` it is 198 to 200 °C.
Regarding `CCCCCCCOC(=O)C(=C1NCCCS1)[N+](=O)[O-]`, the melting point is 59 to 60 °C.
For `O=C(O)c1ncn2c1CN=C(c1ccccc1Br)c1cc(F)ccc1-2`, the melting point lay within 280 to 285 °C.
With `CC(C)C[C@H](NC(=O)OCc1ccccc1)C(=O)N[C@@H](Cc1ccccc1)C(=O)O`, the melting point fell in the range of 120 to 122 °C.
In the case of `Cc1cc(-c2nc3cccnn3c2-c2ccnc(NC(=O)NC3CC3)c2)ccc1F`, the melting point lay within 222 to 223 °C.
The figure for `Clc1cc(-c2ccccc2)nc2sccc12` is 83 to 85 °C.
`CC(=O)OC1CSC(Oc2cccc3conc23)C(OC(C)=O)C1OC(C)=O` (centres undefined) had a melting point of 157 °C.
Under `CC(C)(C)C=C/C=C/C(C)(C)C` stands 78 to 79 °C; under `CCOc1cccc(CN2CCc3cc(O)ccc3C2)c1`, 120 to 121 °C; under `CC(=NOCCOc1ccc(CC2SC(=O)NC2=O)cc1)c1ccc(NS(=O)(=O)c2ccccc2)cc1` (centres undefined), 213 to 215 °C.
The figure for `COc1ccc(NCCCOc2ccc3ccccc3c2)cc1` is 110 °C; for `CN1CCN(C(=O)OC2c3cc(Cl)ccc3C(=O)N2c2ccc3ccc(Cl)nc3n2)CC1` (centres undefined) it is 280 °C; for `COC(=O)c1ccc(-c2n[nH]c3ccccc23)o1` it is 157 to 159 °C.
In turn, `CCCCCCCCCCC=Cc1cnn(C(C(=O)Nc2c(C(C)C)cccc2C(C)C)c2ccccc2)c1` (centres undefined) displayed a melting point of 158 °C.

Broadly, the melting point is the temperature, or range, at which the solid turns liquid.
